Measurements as given in patent US6495522B1, “Substituted alpha-hydroxy acid caspase inhibitors and the use thereof” (Cytovia, Inc., priority 1999, dated 2002).

Legend:
rcaspase 3 = biological target: T1, rcaspase 3 (Homo sapiens, UniProt P42574); assay: Fluorometric caspase-3 enzyme assay; format: biochemical; conditions: 2 ng rcaspase 3, 10 μM Ac-DEVD-AMC, 37° C., 30 minutes; read-out: IC50 as an inhibitor of caspase-3
T1 construct: purchased PharMingen (a Becton division company, San Diego, Calif.)
T1 sequence (P42574 29-175 limits assumed): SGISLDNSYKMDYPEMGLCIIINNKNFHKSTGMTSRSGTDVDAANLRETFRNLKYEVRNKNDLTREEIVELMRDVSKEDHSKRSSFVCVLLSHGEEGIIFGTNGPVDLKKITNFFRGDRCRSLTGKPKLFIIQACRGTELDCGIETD
T1 sequence (P42574 176-277 limits assumed): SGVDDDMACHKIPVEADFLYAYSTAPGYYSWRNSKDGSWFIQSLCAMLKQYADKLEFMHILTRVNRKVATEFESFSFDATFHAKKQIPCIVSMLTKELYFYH
Description: The activity of S-2-methyl-1-(carbonyl-Asp-CH2F)propyl N-phenylcarbamate as an inhibitor of caspase-3 was measured in a fluorometric enzyme assay. Enzyme activity was measured using synthetic peptide substrates attached to a fluorogenic leaving group. Cleavage of the synthetic substrate by the enzyme results in a fluorescent signal which is read in a spectrofluorometer or in a fluorometric microtiter plate reader.
12 concentrations of the test compound ranging from 30 pM to 10 μM were tested in the enzyme assay. The enzyme reaction was conducted in the presence of 2 ng rcaspase 3 (purchased from PharMingen, a Becton division company, San Diego, Calif.), various concentrations of test compound, 10 μM caspase 3 substrate Ac-DEVD-AMC (SEQ ID NO:1, purchased from Quality Controlled Biochemicals, Inc. Hopkinton, Mass.) and caspase buffer (20 mM PIPES, 100 mM NaCl, 10 mM DTT, 1 mM EDTA, 0.1% CHAPS and 10% sucrose, pH 7.2) in a total volume of 100 μL. The enzyme reaction was carried out in a 96-well plate and incubated at 37° C. for 30 minutes. The plate was then read with a fluorescence plate reader (EG&G WALLAG 1420-002) using excitation filter at 355 nm/emission filter at 460 nm.

HeLa cells = assay: Cell protection: HeLa cell death induced by TNF-α; format: cell-based; conditions: TNF-α (25 ng/ml) and cycloheximide (30 μg/ml), 24 hours, calcein AM, read-out: EC50 for cytoprotection
Description: Cell protection activity was determined by examining the ability of S-2-methyl-1-(carbonyl-Asp-CH2F)propyl N-phenylcarbamate to block HeLa cell death induced by TNF-α. In this assay, 25,000 HeLa cells are seeded in 96-well plates 24 hours prior to testing. On the assay day, the cells are pre-incubated for 30 minutes with the test compound at eight different concentrations and the cells are then challenged with TNF-α (25 ng/ml) and cycloheximide (30 μg/ml) and incubated further for 24 hours. The dead cells are then removed by two PBS washes and 100 μL of a cell-mass indicator solution (calcein AM, final concentration 8 μM) is added. After a 20 minute incubation, the fluorescent signal is measured at 485/510 nm and the data are expressed as percent control, using control cultures treated only with cycloheximide.

IC50 (rcaspase 3): 17 nM
SMILES: CC(C)[C@H](OC(=O)Nc1ccccc1)C(=O)N[C@@H](CC(=O)O)C(=O)CF [Example 3, S-2-Methyl-1-(carbonyl-Asp-CH2F)propyl N-Phenylcarbamate]
EC50 (HeLa cells): 150 nM
